Test results taken from patent US4306069A, “Encainide N-oxide” (priority 1980, dated 1981).
In brackets after ≈: the same amount, converted by molar mass. Entries after “also recorded” stand apart in the source; their conditions may differ. Counter-ions that a name gives are not always drawn.

Key:
[1] = Water solubility; type: physicochemical
[2] = test system: ventricular arrhythmia produced by chloroform inhalation; experiment: Antiarrhythmic activity, ventricular arrhythmia produced in mice by chloroform inhalation; type: in vivo; details: 10 animals per dose
From the text: ^(4) Ventricular arrhythmia produced in mice by chloroform inhalation
10 animals per dose (Lawson, J. W., J. Pharmacol. Exp. Therap. 160, 22

[3] = Toxicity, oral doses in mice (ALD50, ATD50); type: in vivo; details: in vivo, mouse, oral, 5 mg/kg to 2000 mg/kg, 2 mice each dose; for LD50: read-out: ALD50 (approximate lethal dose for half the animals); for TD50: read-out: ATD50 (approximate lowest dose where signs of physiologic or neurologic deficit appear)
Experimental: (§1) ^(1) Various oral doses of from 5 mg/kg to 2000 mg/kg are given to 2
(§2) mice each; ALD50 is the approximate lethal dose for half the animals
(§3) ATD50 is the approximate lowest dose where signs of physiologic or
(§4) neurologic deficit appear.

[4] = test system: mice; experiment: Toxicity, oral doses in mice (ALD50, ATD50); type: in vivo; details: compared with encainide and its hydrochloride salt
Experimental: as §1, §2, §3, §4

[5] = test system: ouabain induced ventricular tachycardia; experiment: Antiarrhythmic activity, ouabain induced ventricular tachycardia in the dog; type: in vivo; details: compared with quinidine and encainide
From the text: The present substance is an improved antiarrhythmic agent.
^(3) Anesthetized open chest dog, ouabain induced (Byrne, J.E., et al

[6] = test system: dog; experiment: Dog I.V.: anesthetized dog, effects on blood pressure, respiration and paw temperature; type: in vivo; details: for Toxicity, Dog I.V., effect at 1 mg/kg: first dose 1 mg/kg, blood pressure, respiration, paw temperature
Experimental: ^(2) Anesthesized dog treated first with a 1 mg/kg dose and then with
a 10 mg/kg dose; effects on blood pressure, respiration, and paw
temperature are observed.

Compound	Water solubility, in words [1]	solubility ([1]; water) [mg/mL]	Antiarrhythmic Activity, Mouse, I.P., activity at 31.3 mg/kg ([2]; 31.3 mg/kg)	LD50 [3] [mg/kg]	TD50 [3] [mg/kg]	Toxicity relative to encainide, in words [4]	Antiarrhythmic activity in ouabain induced ventricular tachycardia, in words [5]	Toxicity, Dog I.V., effect at 1 mg/kg [6]	Water solubility ([1]; water) [mg/mL]	ED50 ([2]; ip, mouse, I.P.) [mg/kg]	Toxicity, Dog I.V., effect at 10 mg/kg ([6]; 10 mg/kg after 1 mg/kg)
COc1ccc(C(=O)Nc2ccccc2CCC2CCCC[N+]2(C)[O-])cc1 (racemic) [Encainide N-Oxide, 4-Methoxy-N-[2-[2-(1-methyl-2-piperidyl)ethyl]phenyl]-benzamide N-oxide]	increased water solubility; also recorded: highly water soluble	833 (≈ 2260 mM)	inactive	500 to 1000	62.5 to 125	substantially reduced toxicity	comparable to quinidine in activity, but somewhat less active than encainide	no effect			
COc1ccc(C(=O)Nc2ccccc2CCC2CCCCN2C)cc1 (centres unmarked) [Encainide]	rather low water solubility			50 to 100	5 to 10			no effect	46.3	7.1 to 15	lethal
COc1ccc(C(=O)Nc2ccccc2CCC2CCCCN2C)cc1 (centres unmarked) [hydrochloride salt]	higher water solubility relative to the base								205		
